Source: patent publication US20260015342A1, “HERBICIDAL PYRIMIDINONE DERIVATIVES” (SYNGENTA CROP PROTECTION AG, priority 2022, published 2026)

Key:
Format in all cases: in vivo
Conditions in all cases: 250 g/ha, evaluated after 13 days
ECHCG [1] = test: Pre-emergence biological efficacy, glasshouse
Protocol: (§1) Seeds of weeds and/or crops were sown in standard soil in pots. After cultivation for one day under controlled conditions in a glasshouse (at 24/19° C., day/night; 16 hours light), the plants were sprayed with an aqueous spray solution derived from the formulation of the technical active ingredient in a small amount of acetone and a special solvent and emulsifier mixture referred to as IF50 (11.12% Emulsogen EL360 TM+44.44% N-methylpyrrolidone+44.44% Dowanol DPM glycol ether), to create a 50 g/I solution which was then diluted using 0.2% Genapol X080 as diluent to give the desired final dose of test compound.
(§2) The test plants were then grown under controlled conditions in the glasshouse (at 24/18° C., day/night; […]; 50% humidity) and watered twice daily. After 13 days the test was evaluated (100=total damage to plant; 0=no damage to plant).

SETFA [2] = test: Pre-emergence biological efficacy, glasshouse
Protocol: as §1, §2

LOLPE [3] = test: Pre-emergence biological efficacy, glasshouse
Protocol: as §1, §2

EPHHL [4] = test: Pre-emergence biological efficacy, glasshouse
Protocol: as §1, §2

AMAPA [5] = test: Pre-emergence biological efficacy, glasshouse
Protocol: as §1, §2

IPOHE [6] = test: Pre-emergence biological efficacy, glasshouse
Protocol: as §1, §2

ELEIN = test: Post-emergence biological efficacy, glasshouse
Protocol: as §1, with “14 days” for “one day”
(§3) The test plants were then grown under controlled conditions in the glasshouse (at 24/18° C., day/night; 15 hours light; 50% humidity) and watered twice daily. After 13 days the test was evaluated (100=total damage to plant; 0=no damage to plant).

ECHCG [7] = test: Post-emergence biological efficacy, glasshouse
Protocol: as §1, with “14 days” for “one day”
as §3

SETFA [8] = test: Post-emergence biological efficacy, glasshouse
Protocol: as §1, with “14 days” for “one day”
as §3

LOLPE [9] = test: Post-emergence biological efficacy, glasshouse
Protocol: as §1, with “14 days” for “one day”
as §3

EPHHL [10] = test: Post-emergence biological efficacy, glasshouse
Protocol: as §1, with “14 days” for “one day”
as §3

AMAPA [11] = test: Post-emergence biological efficacy, glasshouse
Protocol: as §1, with “14 days” for “one day”
as §3

DIGSA = test: Post-emergence biological efficacy, glasshouse
Protocol: as §1, with “14 days” for “one day”
as §3

IPOHE [12] = test: Post-emergence biological efficacy, glasshouse
Protocol: as §1, with “14 days” for “one day”
as §3

CHEAL = test: Post-emergence biological efficacy, glasshouse
Protocol: as §1, with “14 days” for “one day”
as §3

## CCOC(=O)C1(C)CC(c2cc(-n3c(OC)nc(C(F)(F)F)cc3=O)c(F)cc2Cl)=NO1 (racemic) [Compound 11, Ethyl 3-[2-chloro-4-fluoro-5-[2-methoxy-6-oxo-4-(trifluoromethyl)pyrimidin-1-yl]phenyl]-5-methyl-4H-isoxazole-5-carboxylate]
ECHCG [1]
  damage to plant (100=total damage to plant; 0=no damage to plant), ECHCG: 100
SETFA [2]
  damage to plant (100=total damage to plant; 0=no damage to plant), SETFA: 100
LOLPE [3]
  damage to plant (100=total damage to plant; 0=no damage to plant), LOLPE: 80
EPHHL [4]
  damage to plant (100=total damage to plant; 0=no damage to plant), EPHHL: 100
AMAPA [5]
  damage to plant (100=total damage to plant; 0=no damage to plant), AMAPA: 100
IPOHE [6]
  damage to plant (100=total damage to plant; 0=no damage to plant), IPOHE: 80
ELEIN
  damage to plant (100=total damage to plant; 0=no damage to plant), ELEIN: 100
ECHCG [7]
  damage to plant (100=total damage to plant; 0=no damage to plant), ECHCG: 100
SETFA [8]
  damage to plant (100=total damage to plant; 0=no damage to plant), SETFA: 100
LOLPE [9]
  damage to plant (100=total damage to plant; 0=no damage to plant), LOLPE: 100
EPHHL [10]
  damage to plant (100=total damage to plant; 0=no damage to plant), EPHHL: 100
AMAPA [11]
  damage to plant (100=total damage to plant; 0=no damage to plant), AMAPA: 100
DIGSA
  damage to plant (100=total damage to plant; 0=no damage to plant), DIGSA: 100
IPOHE [12]
  damage to plant (100=total damage to plant; 0=no damage to plant), IPOHE: 100
CHEAL
  damage to plant (100=total damage to plant; 0=no damage to plant), CHEAL: 100

## CCOC(=O)[C@]1(C)CC(c2cc(-n3c(OC)nc(C(F)(F)F)cc3=O)c(F)cc2Cl)=NO1 [11 (S-enantiomer), ethyl (5S)-3-[2-chloro-4-fluoro-5-[2-methoxy-6-oxo-4-(trifluoromethyl)pyrimidin-1-yl]phenyl]-5-methyl-4H-isoxazole-5-carboxylate]
ECHCG [1]
  damage to plant (100=total damage to plant; 0=no damage to plant), ECHCG: 100
SETFA [2]
  damage to plant (100=total damage to plant; 0=no damage to plant), SETFA: 100
LOLPE [3]
  damage to plant (100=total damage to plant; 0=no damage to plant), LOLPE: 40
EPHHL [4]
  damage to plant (100=total damage to plant; 0=no damage to plant), EPHHL: 90
AMAPA [5]
  damage to plant (100=total damage to plant; 0=no damage to plant), AMAPA: 100
IPOHE [6]
  damage to plant (100=total damage to plant; 0=no damage to plant), IPOHE: 80
ELEIN
  damage to plant (100=total damage to plant; 0=no damage to plant), ELEIN: 100
ECHCG [7]
  damage to plant (100=total damage to plant; 0=no damage to plant), ECHCG: 100
SETFA [8]
  damage to plant (100=total damage to plant; 0=no damage to plant), SETFA: 100
LOLPE [9]
  damage to plant (100=total damage to plant; 0=no damage to plant), LOLPE: 100
EPHHL [10]
  damage to plant (100=total damage to plant; 0=no damage to plant), EPHHL: 100
AMAPA [11]
  damage to plant (100=total damage to plant; 0=no damage to plant), AMAPA: 100
DIGSA
  damage to plant (100=total damage to plant; 0=no damage to plant), DIGSA: 100
IPOHE [12]
  damage to plant (100=total damage to plant; 0=no damage to plant), IPOHE: 100
CHEAL
  damage to plant (100=total damage to plant; 0=no damage to plant), CHEAL: 100

## CCOC(=O)[C@@]1(C)CC(c2cc(-n3c(OC)nc(C(F)(F)F)cc3=O)c(F)cc2Cl)=NO1 [11 (R-enantiomer), Ethyl (5R)-3-[2-chloro-4-fluoro-5-[2-methoxy-6-oxo-4-(trifluoromethyl)pyrimidin-1-yl]phenyl]-5-methyl-4H-isoxazole-5-carboxylate]
ECHCG [1]
  damage to plant (100=total damage to plant; 0=no damage to plant), ECHCG: 90
SETFA [2]
  damage to plant (100=total damage to plant; 0=no damage to plant), SETFA: 90
LOLPE [3]
  damage to plant (100=total damage to plant; 0=no damage to plant), LOLPE: 10
EPHHL [4]
  damage to plant (100=total damage to plant; 0=no damage to plant), EPHHL: 50
AMAPA [5]
  damage to plant (100=total damage to plant; 0=no damage to plant), AMAPA: 10
IPOHE [6]
  damage to plant (100=total damage to plant; 0=no damage to plant), IPOHE: 70
ELEIN
  damage to plant (100=total damage to plant; 0=no damage to plant), ELEIN: 100
ECHCG [7]
  damage to plant (100=total damage to plant; 0=no damage to plant), ECHCG: 100
SETFA [8]
  damage to plant (100=total damage to plant; 0=no damage to plant), SETFA: 80
LOLPE [9]
  damage to plant (100=total damage to plant; 0=no damage to plant), LOLPE: 100
EPHHL [10]
  damage to plant (100=total damage to plant; 0=no damage to plant), EPHHL: 90
AMAPA [11]
  damage to plant (100=total damage to plant; 0=no damage to plant), AMAPA: 100
DIGSA
  damage to plant (100=total damage to plant; 0=no damage to plant), DIGSA: 100
IPOHE [12]
  damage to plant (100=total damage to plant; 0=no damage to plant), IPOHE: 100
CHEAL
  damage to plant (100=total damage to plant; 0=no damage to plant), CHEAL: 100
